Measurements as given in paper PMC7071076, “Antibacterial Activity and Pharmacokinetic Profile of a Promising Antibacterial Agent: 22-(2-Amino-phenylsulfanyl)-22-Deoxypleuromutilin” (Molecules, 2020).
Converted amounts (≈) assume the structure as drawn. Read-outs that look alike come from different tables or passages of the source.

How the values were obtained:
MRSA N20 = experiment: MIC testing, clinical strain; type: cell-based; conditions: Staphylococcus aureus
From the text: (§1) Methicillin-resistant Staphylococcus aureus (MRSA) ATCC 43300, Staphylococcus aureus ATCC 29213, Escherichia coli ATCC 25922, Salmonella typhimurium ATCC 14028, Enterococcus faecalis ATCC 29212, and Enterococcus faecium ATCC 35667 were obtained from the China Institute of Veterinary Drug Control (Beijing, China). Five clinical strains of MRSA (N7, N9, N20, N30, and N54) were isolated from diseased pig tissues of South China Agricultural University and Foshan University Animal Hospital. All clinical strains were identified as MRSA by Gram stain, catalase reaction, coagulase test, staphylococcus API identification system test, MecA gene test, and methicillin MIC test.
(§2) The MIC of amphenmulin against MRSA, Escherichia coli, Salmonella typhimurium, Enterococcus faecalis, and Enterococcus faecium were determined using tiamulin as controls. MIC values were measured by the method of previous work. Staphylococcus aureus ATCC 29213 was used as the quality control bacteria, and the quality control range was referred to the Clinical and Laboratory Standards Institute (CLSI). The bacteria solution was diluted to ~10^6 CFU/mL with Mueller–Hinton (MH) broth for MRSA, Escherichia coli and Salmonella typhimurium while Trypticase Soy Broth for Enterococcus faecalis and Enterococcus faecium. Drugs were dissolved in an aqueous solution of N, N-dimethylformamide (DMF) at a concentration of 2560 µg/mL, and then diluted with broth to prepare working solution (1280 µg/mL). The drug susceptibility testing was performed in 96-well plate. A total of 20 µL of working solution was added into column 1 and well mixed as a 10-fold dilution, following which Serial 2-fold dilutions were prepared to provide concentration ranges of 128–0.0078 µg/mL. Blank broth (no cultures) and bacteria solution (drugs replaced by blank solvent) were set as drug-free controls. Each 96-well plate was cultured at 37 °C for 24 h. The MIC value is the lowest concentration of amphenmulin which inhibits the visible growth of bacteria. The experiment was repeated three times.

MRSA N30 = experiment: MIC testing, clinical strain; type: cell-based; conditions: Staphylococcus aureus
From the text: as §1, §2

MRSA N54 = experiment: MIC testing, clinical strain; type: cell-based; conditions: Staphylococcus aureus
From the text: as §1, §2

MRSA N7 = experiment: MIC testing, clinical strain; type: cell-based; conditions: Staphylococcus aureus
From the text: as §1, §2

MRSA N9 = experiment: MIC testing, clinical strain; type: cell-based; conditions: Staphylococcus aureus
From the text: as §1, §2

[1] = Pharmacokinetic study in mice; type: in vivo; conditions: female, ICR, mouse, plasma, 10 mg/kg
Protocol: Pharmacokinetic parameters of amphenmulin were measured according to previous reports with some modifications. Each group consisted of eight female SPF-ICR mice. Amphenmulin (1 mg/mL) was administered intravenously, intraperitoneally, and orally at a dose of 10 mg/kg, respectively. Formulation of amphenmulin was a filtered solution in 5% DMSO, 5% Tween-80, and 90% normal saline. Serial samples (each 0.2 mL) were collected from the ocular venous plexus and placed in a plastic centrifuge tube. The blood samples were placed at room temperature for 20 min and transferred to a 4 °C refrigerator for 12 h to promote blood coagulation. Then samples were centrifuged at 2000 r/min for 10 min to get serum. Serum samples were frozen at −20°C. 100 µL of samples was accurately absorbed and mixed with 100 µL of acetonitrile in a 1.5 mL centrifuge tube. The sample was mixed vigorously and centrifuged at 12,000 rpm for 10 min. The supernatant was transferred, filtered through a 0.22 μm cellulose membrane filter and used for LC-MS/MS analysis. Equipment and analysis conditions were shown in supplemental data. The pharmacokinetic parameters of amphenmulin were determined from the mean plasma concentration with noncompartmental analysis in WinNonlin 5.2 software (Pharsight, Mountain View, CA, USA). Data were shown as mean ± standard deviation (SD).

[2] = intraperitoneal, mice, intraperitoneal 10 mg/kg, n = 8, read-out: plasma concentration, mean ± S.D
[3] = iv, intravenous 10 mg/kg, mice 1-8 in order, read-out: plasma concentration, individual mice
[4] = iv, mice, intravenous 10 mg/kg, n = 8, read-out: plasma concentration, mean ± S.D

C=C[C@]1(C)C[C@@H](OC(=O)CSc2ccccc2N)[C@]2(C)[C@H](C)CC[C@]3(CCC(=O)[C@H]32)[C@@H](C)[C@@H]1O [Amphenmulin, 22-(2-amino-phenylsulfanyl)-22-deoxypleuromutilin]
MIC (MRSA N20): 4 µg/mL (≈ 8.24 µM)
MIC (MRSA N30): 8 µg/mL (≈ 16.5 µM)
MIC (MRSA N54): 0.0156 µg/mL (≈ 0.0321 µM)
MIC (MRSA N7): 4 µg/mL (≈ 8.24 µM)
MIC (MRSA N9): 0.0156 µg/mL (≈ 0.0321 µM)
concentration at 0.083 h [1, 2]: 850 ± 320 ng/mL
concentration at 0.25 h [1, 2]: 1220 ± 460 ng/mL
concentration at 0.5 h [1, 2]: 980 ± 420 ng/mL
concentration at 0.75 h [1, 2]: 740 ± 330 ng/mL
concentration at 1 h [1, 2]: 580 ± 240 ng/mL
concentration at 2 h [1, 2]: 340 ± 160 ng/mL
concentration at 4 h [1, 2]: 190 ± 120 ng/mL
concentration at 6 h [1, 2]: 120 ± 90 ng/mL
concentration at 8 h [1, 2]: 70 ± 40 ng/mL
concentration at 12 h ([1]; intraperitoneal, mice, intraperitoneal 10 mg/kg, 12 h, n = 8, read-out: plasma concentration, mean ± S.D): 30 ± 10 ng/mL
AUC(0-inf) ([1]; ip, mice, intraperitoneal): 2520 ± 810 ng·h/mL
Cmax ([1]; ip, mice, intraperitoneal): 1340 ± 420 ng/mL
MRT ([1]; ip, mice, intraperitoneal): 3.28 ± 0.42 h
Tmax ([1]; ip, mice, intraperitoneal): 19.2 ± 12.6 min
bioavailability ([1]; ip, mice, intraperitoneal): 20.7%
half-life ([1]; ip, mice, intraperitoneal): 158 ± 43.2 min
Vd/F ([1]; ip, mice, intraperitoneal, read-out: Vz/F): 15.9 ± 7.41 L/kg
concentration at 0.083 h [1, 3]: 3060 ng/mL
concentration at 0.25 h [1, 3]: 2850 ng/mL
concentration at 0.5 h [1, 3]: 2650 ng/mL
concentration at 0.75 h [1, 3]: 2350 ng/mL
concentration at 4 h [1, 3]: 850 ng/mL
concentration at 6 h [1, 3]: 460 ng/mL
concentration at 0.083 h [1, 4]: 3940 ± 730 ng/mL
concentration at 0.25 h [1, 4]: 3770 ± 640 ng/mL
concentration at 0.5 h [1, 4]: 3530 ± 530 ng/mL
concentration at 0.75 h [1, 4]: 3310 ± 740 ng/mL
concentration at 1 h [1, 4]: 3190 ± 700 ng/mL
concentration at 2 h [1, 4]: 2300 ± 650 ng/mL
concentration at 4 h [1, 4]: 1010 ± 160 ng/mL
concentration at 6 h [1, 4]: 420 ± 90 ng/mL
concentration at 8 h [1, 4]: 210 ± 80 ng/mL
